Results published in US8324214B2, “1,3-dihydro-2H-pyrrolo[3,2-bpyridin-2-one derivatives, preparation thereof and therapeutic uses thereof” (Sanofi, priority 2008, dated 2012).
Structures can show the parent of a compound that is named as a salt. One block for each compound: values may come before it.

Tests used:
human V1a receptors [1] = target: T1, human V1a receptors (Homo sapiens, UniProt P37288); assay: Intracellular calcium measurement (FLIPR) on cells expressing V1a receptors; type: cell-based; settings: FLIPR and platelet aggregation tests; blocking effects caused by arginine-vasopressin
Description: The agonist or antagonist character of the compounds is determined in vitro in a test for measuring intracellular calcium (FLIPR) on cells expressing the human V1a receptors according to the general technique described in Sullivan et al, Methods Mol. Biol., 1999, 114, 125-133, using 1 μM Fluo-4 AM and in an AVP-induced platelet aggregation test on human PRP (platelet rich plasma) according to the methodology described in J. Clin. Invest., 1993, 92, 224.231. The compounds are preincubated for 30 minutes before the addition of arginine vasopressin in order to determine the agonist and antagonist properties of these molecules.

[2] = target: T2, human uterine oxytocin receptor (Homo sapiens, UniProt P30559); assay: Displacement of radioiodinated oxytocin analogue at oxytocin receptors; type: binding; settings: for IC50: affinity at human oxytocin receptors
T2 construct: expressed in transfected cells
T2 sequence (P30559 1-389): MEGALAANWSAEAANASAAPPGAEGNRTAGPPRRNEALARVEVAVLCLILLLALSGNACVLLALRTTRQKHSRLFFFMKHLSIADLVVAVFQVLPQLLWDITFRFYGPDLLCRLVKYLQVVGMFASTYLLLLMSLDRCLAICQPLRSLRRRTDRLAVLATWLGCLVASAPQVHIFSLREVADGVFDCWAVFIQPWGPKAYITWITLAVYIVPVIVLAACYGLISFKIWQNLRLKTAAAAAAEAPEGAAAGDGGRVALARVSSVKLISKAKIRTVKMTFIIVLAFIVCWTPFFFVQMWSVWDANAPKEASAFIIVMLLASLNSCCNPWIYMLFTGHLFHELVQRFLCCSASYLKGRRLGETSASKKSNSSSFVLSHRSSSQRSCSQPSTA
Description: The affinity of the compounds according to the invention for the oxytocin receptors was determined in an in vitro binding test using the method described by J. Elands et al. in Eur. J. Pharmacol., 1987, 147, 197-207. This method consists in studying in vitro the displacement of a radioiodinated analogue of oxytocin at the oxytocin receptors in a membrane preparation of cells transfected with the human uterine oxytocin receptor.

human V2 receptors = human V2 receptors (Homo sapiens, UniProt P30518); assay: Affinity for vasopressin V2 receptors; type: binding; settings: for IC50: affinity at human V2 receptors
Text: Th affinity of the compounds of formula (I) according to the invention for the vasopressin V2 receptors was also studied (method described by M. Birnbaumer et al. in Nature (Lond.), 1992, 357, 333-335).

human V1b receptors = target: T3, human V1b receptors (Homo sapiens, UniProt P47901); assay: Displacement of [3H]-AVP at V1b receptors (binding affinity); settings: [3H]-AVP displacement
T3 sequence (P47901 1-424): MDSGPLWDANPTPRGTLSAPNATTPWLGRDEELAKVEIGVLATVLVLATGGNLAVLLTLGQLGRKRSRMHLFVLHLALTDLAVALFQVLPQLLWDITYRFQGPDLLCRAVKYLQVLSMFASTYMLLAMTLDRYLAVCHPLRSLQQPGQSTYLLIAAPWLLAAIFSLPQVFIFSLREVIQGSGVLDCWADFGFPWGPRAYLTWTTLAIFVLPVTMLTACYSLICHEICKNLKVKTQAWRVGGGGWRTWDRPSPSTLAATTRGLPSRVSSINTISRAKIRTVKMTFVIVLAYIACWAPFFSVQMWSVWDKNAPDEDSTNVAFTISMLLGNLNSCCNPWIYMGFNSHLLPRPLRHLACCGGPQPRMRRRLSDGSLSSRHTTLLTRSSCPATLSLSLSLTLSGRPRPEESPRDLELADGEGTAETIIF
Description: The affinity of the compounds of formula (I) according to the invention for the arginine-vasopressin V1b receptors was determined in vitro using the method described by Y. de Keyser et al. in Febs Letters, 1994, 356, 215-220. This method consists in studying in vitro the displacement of tritiated arginine-vasopressin ([3H]-AVP) at the V1b receptors present on cell preparations carrying the human V1b receptors.

human V1a receptors [3] = target: T1, human V1a receptors; assay: Displacement of [3H]-AVP at V1a receptors (binding affinity); settings: for IC50: affinity at human V1a receptors, [3H]-AVP displacement; for selectivity for the human V1a and V1b receptors for AVP (in words): versus V2 / oxytocin receptors
Description: The affinity of the compounds of formula (I) according to the invention for the arginine-vasopressin V1a receptors was determined in vitro using the method described by M. Thibonnier et al., J. Biol. Chem., 1994, 269, 3304-3310. This method consisted in studying in vitro the displacement of tritiated arginine-vasopressin ([3H]-AVP) at the V1a receptors present on membrane or cell preparations carrying the rat or human V1a receptors.

T1 sequence (P37288 whole entry): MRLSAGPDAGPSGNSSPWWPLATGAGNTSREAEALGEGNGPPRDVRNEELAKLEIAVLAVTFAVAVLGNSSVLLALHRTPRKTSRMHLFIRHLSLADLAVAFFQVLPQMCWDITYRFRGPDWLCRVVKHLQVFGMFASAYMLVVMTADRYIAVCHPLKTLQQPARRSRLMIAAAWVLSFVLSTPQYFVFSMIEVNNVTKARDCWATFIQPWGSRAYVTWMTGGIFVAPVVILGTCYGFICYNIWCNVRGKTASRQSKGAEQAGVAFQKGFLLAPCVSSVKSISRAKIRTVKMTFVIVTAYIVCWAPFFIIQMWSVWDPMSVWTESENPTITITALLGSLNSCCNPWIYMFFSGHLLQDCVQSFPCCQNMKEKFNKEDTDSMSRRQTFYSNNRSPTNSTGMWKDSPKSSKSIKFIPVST
Sequence of human V2 receptors (P30518 whole entry): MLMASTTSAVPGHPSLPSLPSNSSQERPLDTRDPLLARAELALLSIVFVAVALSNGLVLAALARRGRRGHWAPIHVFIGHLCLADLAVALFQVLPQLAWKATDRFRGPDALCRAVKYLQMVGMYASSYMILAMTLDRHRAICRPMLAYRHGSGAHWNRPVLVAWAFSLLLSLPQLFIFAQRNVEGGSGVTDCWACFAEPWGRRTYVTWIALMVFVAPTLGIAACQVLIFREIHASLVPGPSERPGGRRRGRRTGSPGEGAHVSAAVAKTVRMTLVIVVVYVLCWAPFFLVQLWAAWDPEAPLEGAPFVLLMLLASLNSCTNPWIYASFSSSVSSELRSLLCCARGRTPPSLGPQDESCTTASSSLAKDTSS

Structure (SMILES): COc1ccc2c(n1)C(CCCN1CCNCC1)(c1ccccc1F)C(=O)N2S(=O)(=O)c1ccc(OC(C)C)cc1 (centres unmarked) [No. 2]
- agonist or antagonist character (human V1a receptors [1]): V1a receptor antagonists

Structure (SMILES): CCN(CC)C(=O)Nc1ccc(S(=O)(=O)N2C(=O)C(NCCC3CCNCC3)(c3ccccc3Cl)c3cc(Cl)c(C)cc32)cc1 (stereo not drawn) [Compound β, 3-[4-[[5-chloro-3-(2-chlorophenyl)-6-methyl-2-oxo-3-[(2-piperidin-4-ylethyl)amino]-2,3-dihydro-1H-indol-1-yl]sulphonyl]phenyl]-1-diethylurea]
- IC50 [2]: 69 nM
- affinity for the human V2 receptors for AVP (in words) (human V2 receptors): good affinity
- IC50 (human V2 receptors): 13 nM
- IC50 (human V1b receptors): 180 nM
- affinity for the human V1a receptors for AVP (in words) (human V1a receptors [3]): good affinity
- IC50 (human V1a receptors [3]): 18 nM
- selectivity for the human V1a and V1b receptors for AVP (in words) (human V1a receptors [3]): not therefore selective

Structure (SMILES): COc1ccc2c(n1)C(CCCN1CCCCC1)(c1ccccc1F)C(=O)N2S(=O)(=O)c1ccc(OC(C)C)cc1 (centres unmarked) (as salt: HCl)
- melting point: 157 °C

Structure (SMILES): COc1ccc2c(n1)C(CCCN1CCCCC1)(c1ccccc1F)C(=O)N2S(=O)(=O)c1ccc(OC(F)F)cc1 (centres unmarked) (as salt: HCl)
- melting point: 133 °C

Structure (SMILES): COc1ccc2c(n1)C(CCCCN1CCN(C)CC1)(c1ccccc1F)C(=O)N2S(=O)(=O)c1ccc(OC(C)C)cc1 (centres unmarked) (as salt: salt)
- melting point: 52 °C

Structure (SMILES): COc1ccc2c(n1)C(CCCCN1CCNCC1)(c1ccccc1F)C(=O)N2S(=O)(=O)c1ccc(OC(C)C)cc1 (centres unmarked) (as salt: HCl) [compound 14, 3-(2-fluorophenyl)-1-[(4-isopropoxyphenyl)sulphonyl]-5-methoxy-3-(4-piperazin-1-ylbutyl)-1,3-dihydro-2H-pyrrolo[3,2-b]pyridin-2-one]
- melting point: 133 °C

Structure (SMILES): Cc1ccc2c(n1)C(CCCN1CCNCC1)(c1ccccc1F)C(=O)N2S(=O)(=O)c1ccc(OC(C)C)cc1.Cl (single isomer, unassigned)
- melting point: 150 °C

Structure (SMILES): CCN(CC)C(=O)Nc1ccc(S(=O)(=O)N2C(=O)C(NCCC3CCNCC3)(c3ccccc3Cl)c3cc(Cl)c(Cl)cc32)cc1 (stereo not drawn) [Compound α, 3-[4-[[5,6-dichloro-3-(2-chlorophenyl)-2-oxo-3-[(2-piperidin-4-ylethyl)amino]-2,3-dihydro-1H-indol-1-yl]sulphonyl]phenyl]-1,1-diethylurea]
- affinity for the oxytocin receptors (in words) [2]: good affinity
- IC50 [2]: 100 nM
- affinity for the human V2 receptors for AVP (in words) (human V2 receptors): good affinity
- IC50 (human V2 receptors): 19 nM
- IC50 (human V1b receptors): 210 nM
- affinity for the human V1a receptors for AVP (in words) (human V1a receptors [3]): good affinity
- IC50 (human V1a receptors [3]): 23 nM
- selectivity for the human V1a and V1b receptors for AVP (in words) (human V1a receptors [3]): not therefore selective

Structure (SMILES): COc1ccc2c(n1)C(CCCN1CCCCC1)(c1ccccc1F)C(=O)N2S(=O)(=O)c1cccc(Cl)c1 (centres unmarked) (as salt: HCl)
- melting point: 148 °C

Structure (SMILES): COc1ccc2c(n1)C(CCCN1CCN(C)CC1)(c1ccccc1F)C(=O)N2S(=O)(=O)c1ccc(OC(C)C)cc1 (centres unmarked) (as salt: HCl) [compound 11, 3-(2-fluorophenyl)-1-[(4-isopropoxyphenyl)sulphonyl]-5-methoxy-3-[3-(4-methylpiperazin-1-yl)propyl]-1,3-dihydro-2H-pyrrolo[3,2-b]pyridin-2-one]
- melting point: 190 °C

Structure (SMILES): COc1ccc2c(n1)C(CCCCN1CCNCC1)(c1ccccc1F)C(=O)N2S(=O)(=O)c1ccc(OC(C)C)cc1 (racemic) (as salt: HCl) [Compound No. 10, 3-(2-Fluorophenyl)-1-[(4-isopropoxyphenyl)sulphonyl]-5-methoxy-3-(4-piperazin-1-ylbutyl)-1,3-dihydro-2H-pyrrolo[3,2-b]pyridin-2-one]
- melting point: 210 °C

Structure (SMILES): COc1ccc2c(n1)C(CCCN1CCN(C)CC1)(c1ccccc1F)C(=O)N2S(=O)(=O)c1ccc(OC(C)C)cc1 (centres unmarked) [compound 11, 3-(2-fluorophenyl)-1-[(4-isopropoxyphenyl)sulphonyl]-5-methoxy-3-[3-(4-methylpiperazin-1-yl)propyl]-1,3-dihydro-2H-pyrrolo[3,2-b]pyridin-2-one]
- IC50 [2]: 100 nM
- IC50 (human V2 receptors): 210 nM
- IC50 (human V1b receptors): > 1000 nM
- IC50 (human V1a receptors [3]): 7.1 nM

Results, then the compound that gave them:

- melting point: 178 °C
Structure (SMILES): COc1cccc(S(=O)(=O)N2C(=O)C(CCCN3CCNCC3)(c3ccccc3F)c3nc(OC)ccc32)c1.Cl (single isomer, unassigned)

- agonist or antagonist character (human V1a receptors [1]): V1a receptor antagonists
Structure (SMILES): COc1ccc2c(n1)C(CCCN1CCNCC1)(c1ccccc1F)C(=O)N2S(=O)(=O)c1cccc(Cl)c1 (centres unmarked) [No. 4]

- IC50 [2]: 71 nM
- IC50 (human V2 receptors): 120 nM
- IC50 (human V1b receptors): 350 nM
- IC50 (human V1a receptors [3]): 0.82 nM
Structure (SMILES): COc1ccc2c(n1)C(CCCN1CCNCC1)(c1ccccc1F)C(=O)N2S(=O)(=O)c1ccc(OC(C)C)cc1 (centres unmarked) [Compound No. 2, 3-(2-fluorophenyl)-1-[(4-isopropoxyphenyl)sulphonyl]-5-methoxy-3-(3-piperazin-1-ylpropyl)-1,3-dihydro-2H-pyrrolo[3,2-b]pyridin-2-one]

- IC50 [2]: > 1000 nM
- IC50 (human V2 receptors): > 1000 nM
- IC50 (human V1b receptors): > 1000 nM
- IC50 (human V1a receptors [3]): 8.9 nM
Structure (SMILES): COc1ccc2c(n1)C(CCCN1CCNCC1)(c1ccccc1F)C(=O)N2S(=O)(=O)c1cccc(Cl)c1 (centres unmarked) [compound 4, 1-[(3-chlorophenyl)sulphonyl]-3-(2-fluorophenyl)-5-methoxy-3-(3-piperazin-1-ylpropyl)-1,3-dihydro-2H-pyrrolo[3,2-b]pyridin-2-one]

- melting point: 148 °C
Structure (SMILES): COc1cccc(S(=O)(=O)N2C(=O)C(CCCN3CCCCC3)(c3ccccc3F)c3nc(OC)ccc32)c1.Cl (single isomer, unassigned)

- melting point: 177 °C
Structure (SMILES): COc1ccc2c(n1)C(CCCN1CCNCC1)(c1ccccc1F)C(=O)N2S(=O)(=O)c1cccc(Cl)c1 (centres unmarked) (as salt: HCl) [compound 4, 1-[(3-chlorophenyl)sulphonyl]-3-(2-fluorophenyl)-5-methoxy-3-(3-piperazin-1-ylpropyl)-1,3-dihydro-2H-pyrrolo[3,2-b]pyridin-2-one]

- melting point: 123 °C
Structure (SMILES): COc1ccc2c(n1)C(CCCN1CCNCC1)(c1ccccc1F)C(=O)N2S(=O)(=O)c1ccc(OC(C)C)cc1 (centres unmarked) (as salt: HCl) [Compound No. 2, 3-(2-fluorophenyl)-1-[(4-isopropoxyphenyl)sulphonyl]-5-methoxy-3-(3-piperazin-1-ylpropyl)-1,3-dihydro-2H-pyrrolo[3,2-b]pyridin-2-one]
